From patent US20170158702A1, “MULTIVALENT RAS BINDING COMPOUNDS” (KYRAS THERAPEUTICS, INC., priority 2015, published 2017)
Structures can show the parent of a compound that is named as a salt.

Columns and labels:
Assay type in all cases: cell-based
[1] = test system: U2OS; test: Viability assay with U2OS; details: viability assay per Example 57
Protocol: (§1) NCI-H460 (Epithelial lung tissue; carcinoma; large cell lung cancer) were cultured in RPMI Medium 1640 (Invitrogen-22400105) supplemented with 10% fetal bovine serum (FBS; Invitrogen-10099141). All the cell lines were maintained in a humidified incubator at 37° C. with 5% CO2. Cell culture media and supplements were purchased from Invitrogen, and tissue culture flasks were purchased from Corning, 96-well plates were purchased from Greiner. CellTiter-Glo Luminescent Cell Viability Assay kits were purchased from Promega (Promega-G7573), cells counter Vi-Cell was purchased from Beckman, D300e digital dispenser was purchased from Tecan, detection instrument Envision was purchased from PerkinElmer.
(§2) Paclitaxel was purchased from SELLECK, test compounds, such as any one of the compounds disclosed herein, attained solubility in DMSO and when diluted into culture media. DMSO, solutions containing the test compounds, and culture media were warmed to 37° C. or room temperature for the solution preparation and dilutions.
(§3) NCI-H460 Cell line were seeded in 96-well plates (1200/well) and allowed to adhere to overnight (100 uL/well), for drug treatments with 2 fold dilution, 9 dose points, triplicates or vehicle control, compound stock solutions were prepared in DMSO and use D300e digital dispenser to add compounds to the wells to give the indicated final drug concentrations. Final DMSO concentration was 0.5%. Cellular ATP concentrations were assessed by using the CellTiter-Glo Cell Viability Assay as per the manufacturer's instructions 72 h after compounds addition. Additional cells lines were assayed with any one of the compounds disclosed herein according to the procedures described for the viability assay with NCI-H460.
The viability assay with U2OS (epithelial bone tissue; osteosarcoma) was performed with compounds listed in Table 17 according to the procedures described in Example 57.

[2] = test system: MIA PaCa-2; test: Viability assay with MIA PaCa-2; details: MIA PaCa-2, viability assay per Example 57
How it was run: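 MIA PaCa-2 cells were seeded at 1200/well, allowed to adhere overnight, then treated in triplicate with 9-point 2-fold compound dilutions at 0.5% final DMSO. Viability was measured as cellular ATP by CellTiter-Glo luminescence 72 h after compound addition.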

[3] = test system: NCI-H460; test: Viability assay with NCI-H460 (CellTiter-Glo cytotoxicity assay, 72 h); details: NCI-H460 cell line, 72 h after compounds addition
How it was run: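 NCI-H460 cells, RPMI 1640 + 10% FBS, seeded 1200/well and adhered overnight, then exposed to compounds at 9 points, 2-fold dilution, in triplicate, 0.5% DMSO final. Cellular ATP measured by CellTiter-Glo luminescence 72 h after addition.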

[4] = test system: NCI-H2023; test: Viability assay with NCI-H2023; details: NCI-H2023, viability assay per Example 57
Protocol: as §1, §2, §3
A viability assay with NCI-H2023 (stage 3A, adenocarcinoma; non-small cell lung cancer) was performed with compounds listed in Table 16 according to the procedures described in Example 57.

[5] = test system: HT-29; test: Viability assay with HT-29; details: HT-29, viability assay per Example 57
How it was run: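 Cells seeded 1200/well, adhered overnight, then treated with 9-point 2-fold compound dilutions in triplicate (0.5% final DMSO). Viability taken as cellular ATP by CellTiter-Glo luminescence 72 h after compound addition.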

SMILES	EC50 [1] [µM]	EC50 [2] [µM]	EC50 [4] [µM]	EC50 [5] [µM]	EC50 [3] [µM]
N#Cc1cccc(-c2cccc(Cl)c2CN2CCN(Cc3ccc4c(c3)c(-c3cccc(C#N)c3)cn4CCCN)CC2)c1 [C4; HCl]	≤ 5	≤ 5	–	–	≤ 5
COc1ccc(F)c(CN2CCN(Cc3ccc4c(c3)c(-c3ccc(OC(F)(F)F)cc3)cn4CCCN)CC2)c1 [C1; HCl]	≤ 5	≤ 5	–	–	≤ 5
NCCCn1cc(-c2ccc(OC(F)(F)F)cc2)c2cc(CN3CCN(Cc4cccc(OC(F)(F)F)c4)CC3)ccc21 [C163; HCl]	≤ 5	≤ 5	–	–	≤ 5
NCCN(CCN)CCCn1cc(-c2ccc(OC(F)(F)F)cc2)c2cc(CN3CCN(Cc4c(Cl)cccc4Cl)CC3)ccc21 [C7; Formic acid]	≤ 5	≤ 5	–	–	≤ 5
CN(CCNCc1ccc2c(c1)c(-c1ccc(OC(F)(F)F)cc1)cn2CCCN)Cc1ccccc1Cl [C173; HCl]	≤ 5	≤ 5	–	–	≤ 5
CN(CCN(C)Cc1ccccc1Cl)Cc1ccc2c(c1)c(-c1ccc(OC(F)(F)F)cc1)cn2CCCN [C172; HCl]	≤ 5	≤ 5	–	–	≤ 5
NCCCn1cc(-c2cccc(CN)c2)c2cc(CN3CCN(Cc4c(Cl)cccc4Cl)CC3)ccc21 [C168; HCl]	≤ 5	≤ 5	–	≤ 5	≤ 5
N#Cc1ccccc1-c1cn(CCCN)c2ccc(CN3CCN(Cc4c(Cl)cccc4Cl)CC3)cc12 [C8; HCl]	≤ 5	≤ 5	–	–	≤ 5
CC(C)(c1ccccc1Cl)N1CCN(Cc2ccc3c(c2)c(-c2ccc(OC(F)(F)F)cc2)cn3CCCN)CC1 [C166; Formic Acid]	≤ 5	≤ 5	–	≤ 5	≤ 5
COc1cc(CN2CCN(Cc3ccc4c(c3)c(-c3ccc(OC(F)(F)F)cc3)cn4CCCN)CC2)cc(OC)c1 [C11; HCl]	≤ 5	≤ 5	–	–	≤ 5
CCc1ccc(-c2cn(CCCN)c3ccc(CN4CC5CCC(C4)N5Cc4ccccc4Cl)cc23)cc1 [C157; HCl]	≤ 5	≤ 5	–	–	≤ 5
NCCCn1cc(-c2ccc(OC(F)(F)F)cc2)c2cc(CN3CCN(CC(F)(F)F)CC3)ccc21 [C160; HCl]	≤ 5	≤ 5	–	–	≤ 5
NCCCn1cc(-c2ccc(CN)cc2)c2cc(CN3CCN(Cc4c(Cl)cccc4Cl)CC3)ccc21 [C10; Formic acid]	≤ 5	≤ 5	–	–	≤ 5
NCCCn1cc(-c2ccccc2CN)c2cc(CN3CCN(Cc4c(Cl)cccc4Cl)CC3)ccc21 [C162; HCl]	≤ 5	–	–	≤ 5	–
NCCCn1cc(-c2ccccc2Cl)c2cc(CN3CCN(Cc4c(Cl)cccc4Cl)CC3)ccc21 [C167; HCl]	≤ 5	≤ 5	–	–	≤ 5
COc1cccc(OC)c1CN1CCN(Cc2ccc3c(c2)c(-c2ccc(OC(F)(F)F)cc2)cn3CCCNC(=O)C2(N)CCNCC2)CC1 [C49; HCl]	–	5 to 10	5 to 10	–	5 to 10
NC1(C(=O)NCCCCn2cc(-c3ccc(OC(F)(F)F)cc3)c3cc(CN4CCN(Cc5c(Cl)cccc5Cl)CC4)ccc32)CCNCC1 [C35; HCl]	–	≤ 5	≤ 5	–	≤ 5
NC1CCC(c2cn(-c3ccc(OC(F)(F)F)cc3)c3cc(CN4CCN(Cc5c(Cl)cccc5Cl)CC4)ccc23)C1 (centres unmarked) [C30; HCl]	–	≤ 5	≤ 5	–	≤ 5
COc1ccc(-c2cn(CCCN)c3ccc(CN4CC5CCC(C4)N5Cc4ccccc4Cl)cc23)cc1 [C158; HCl]	≤ 5	≤ 5	–	–	≤ 5
COc1ccccc1-c1cn(CCCN)c2ccc(CN3CCN(Cc4c(Cl)cccc4Cl)CC3)cc12 [C2; HCl]	≤ 5	≤ 5	–	–	≤ 5
NCCCn1cc(-c2ccc(OC(F)(F)F)cc2)c2cc(CN3CCN(Cc4cccc(C(F)(F)F)c4Cl)CC3)ccc21 [C155; HCl]	≤ 5	≤ 5	–	–	≤ 5
COc1ccc(-c2cn(CCCN)c3ccc(CN4CCN(Cc5c(Cl)cccc5Cl)CC4)cc23)cc1 [C22; Formic acid]	≤ 5	≤ 5	≤ 5	–	≤ 5
Cc1ccc(-c2cn(CCCN)c3ccc(CN4CCN(Cc5c(Cl)cccc5Cl)CC4)cc23)cc1 [C51; HCl]	–	≤ 5	≤ 5	–	≤ 5

More lines, main results first:

EC50 [1] [µM]	EC50 [2] [µM]	EC50 [4] [µM]	EC50 [5] [µM]	SMILES	EC50 [3] [µM]
≤ 5	≤ 5	–	–	NCCCn1cc(-c2ccc(OC(F)(F)F)cc2)c2cc(CN3CCC4(CC3)CCN(Cc3ccccc3Cl)C4)ccc21 [C5; HCl]	≤ 5
≤ 5	≤ 5	–	–	NCCCn1cc(-c2ccc(OC(F)(F)F)cc2)c2cc(CN3CCN(Cc4cccc(Cl)c4)CC3)ccc21 [C9; HCl]	≤ 5
≤ 5	≤ 5	≤ 5	–	NCCCCn1cc(-c2ccc(OC(F)(F)F)cc2)c2cc(CN3CCN(Cc4c(Cl)cccc4Cl)CC3)ccc21 [C43; HCl]	≤ 5
≤ 5	≤ 5	–	≤ 5	NCCCn1cc(-c2ccc(OC(F)(F)F)cc2)c2cc(CN3CCN(Cc4cc(Cl)ccc4Cl)CC3)ccc21 [C156; HCl]	≤ 5
≤ 5	≤ 5	–	–	NCCCn1cc(-c2ccc(OC(F)(F)F)cc2)c2cc(CN3CCN(Cc4cccc(Cl)c4Cl)CC3)ccc21 [C164; HCl]	≤ 5
≤ 5	≤ 5	–	–	COc1cccc(CN2CCN(Cc3ccc4c(c3)c(-c3ccc(OC(F)(F)F)cc3)cn4CCCN)CC2)c1Cl [C12; HCl]	≤ 5
≤ 5	≤ 5	–	–	NCCCn1cc(-c2ccc(OC(F)(F)F)cc2)c2cc(CN3CCC(Cc4ccccc4Cl)CC3)ccc21 [C3; HCl]	≤ 5
≤ 5	≤ 5	–	–	NCCCn1cc(-c2ccc(OC(F)(F)F)cc2)c2cc(CN3CCN(Cc4cc(F)ccc4Cl)CC3)ccc21 [C165; HCl]	≤ 5
≤ 5	≤ 5	–	≤ 5	NCCCn1cc(-c2ccc(OC(F)(F)F)cc2)c2cc(CN3CCC4(CCN(Cc5ccccc5Cl)CC4)C3)ccc21 [C169; HCl]	≤ 5
≤ 5	≤ 5	–	–	NCCCn1cc(-c2ccc(OC(F)(F)F)cc2)c2cc(CC3CCN(Cc4ccccc4Cl)CC3)ccc21 [C159; HCl]	≤ 5
